# Patent US10669258B2, “3-sulfonyl-5-aminopyridine-2,4-diol APJ agonists” (BRISTOL-MYERS SQUIBB COMPANY, priority 2016, dated 2020)
# Biological target: T1, human APJ receptor (Homo sapiens, UniProt P35414)
# T1 construct: expressed in transfected cells; host or cells: HEK293
# T1 sequence (P35414 1-380): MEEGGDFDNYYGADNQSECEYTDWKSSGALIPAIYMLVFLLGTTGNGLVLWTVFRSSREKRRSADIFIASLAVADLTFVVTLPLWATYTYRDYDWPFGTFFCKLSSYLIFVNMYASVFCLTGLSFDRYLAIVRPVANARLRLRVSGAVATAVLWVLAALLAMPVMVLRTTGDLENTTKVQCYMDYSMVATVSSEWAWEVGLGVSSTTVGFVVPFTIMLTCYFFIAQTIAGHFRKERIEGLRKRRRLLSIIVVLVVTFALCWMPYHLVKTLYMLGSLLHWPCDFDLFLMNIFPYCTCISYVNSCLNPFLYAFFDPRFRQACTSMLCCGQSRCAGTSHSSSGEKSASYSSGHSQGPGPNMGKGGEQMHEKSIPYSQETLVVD
# Test: Intracellular cAMP accumulation assay (APJ hcAMP, HTRF)
# Assay type: cell-based
# Details: HEK293 cells stably expressing human APJ receptor; inhibition of forskolin-mediated cAMP production; Table 1; read-out: hAPJ cAMP EC50 Potency range
# Summary of the method: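 HEK293 cells stably expressing the receptor (5,000/well) treated with compound plus […] and 2 μM forskolin for 30 min at room temperature; cAMP by HTRF against a cAMP standard curve. EC50 from variable-slope sigmoidal fit; Ymax as % of (Pyr1)apelin-13 inhibition.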
row,Compound,EC50
1,"CCCCc1nc(O)c(S(=O)(=O)c2ccc(-c3cccnc3C)cc2)c(O)c1N(C)c1ccc(C)cc1 [Example 097, 6-butyl-5-(methyl(p-tolyl)amino)-3-((4-(2-methylpyridin-3-yl)phenyl)sulfonyl)pyridine-2,4-diol]",10 to 100 nM
2,"CCCCc1nc(O)c(C(=O)N2CC[C@@H](c3ccccc3)C2)c(O)c1N1CCC(C)c2ccccc21 (stereo partly drawn) [Example 045, (6-butyl-2,4-dihydroxy-5-(4-methyl-3,4-dihydroquinolin-1(2H)-yl)pyridin-3-yl)((S)-3-phenylpyrrolidin-1-yl)methanone]",0.01 to 10 nM
3,"Cc1c(-c2ccc(S(=O)(=O)c3c(O)nc(-c4ccn(C)n4)c(N4CC(C)(C)c5ccccc54)c3O)cc2)ccnc1F [Example 160, 5-(3,3-dimethylindolin-1-yl)-3-((4-(2-fluoro-3-methylpyridin-4-yl)phenyl)sulfonyl)-6-(1-methyl-1H-pyrazol-3-yl)pyridine-2,4-diol]",10 to 100 nM

# Results, then the compound that gave them:
row,EC50,Compound
1,0.01 to 10 nM,"CCCCc1nc(O)c(S(=O)(=O)c2ccc(-c3ccccc3C(N)=O)cc2)c(O)c1N1CCCOc2ccccc21 [Example 168, 4′-((6-butyl-5-(3,4-dihydrobenzo[b][1,4]ox-azepin-5(2H)-yl)-2,4-dihydroxypyridin-3-yl)sulfonyl)-[1,1′-biphenyl]-2-carboxamide]"
2,10 to 100 nM,"CCCCc1nc(O)c(S(=O)(=O)c2ccc(-c3ccccc3C(=O)N(C)C)cc2)c(O)c1N1CCCOc2ccccc21 [Example 142, 4′-((6-butyl-5-(3,4-dihydrobenzo[b][1,4]oxazepin-5(2H)-yl)-2,4-dihydroxypyridin-3-yl)sulfonyl)-N,N-dimethyl-[1,1′-biphenyl]-2-carboxamide]"
